{
  "source": "patent US20150157634A1",
  "about": "“METHODS OF TREATING AND PREVENTING ALLOANTIBODY DRIVEN CHRONIC GRAFT VERSUS HOST DISEASE” (PHARMACYCLICS, INC., priority 2013, published 2015)",
  "key": {"[1]": {"system": "C57BL/6→B10.BR cGVHD model", "assay": "Germinal center detection in spleen (PNA staining, flow cytometry of GC B-cells)", "type": "in vivo, mouse", "description": "(§1) FIG. 4 exemplifies germinal center reactions and pulmonary immunoglobulin deposition are therapeutically abated with administration of ibrutinib. A) Germinal centers were imaged by staining 6 um spleen sections with PNA conjugated to rhodamine. B) Splenocytes were purified from transplanted mice on day 60 and frequency of germinal center B cells were quantified. C) 6 μm lung sections from day 60 transplanted mice were stained with anti-mouse Ig conjugated to FITC. D) quantified with Adobe Photoshop CS3.\n(§2) Therapeutic allo-HSCT model: The C57BL/6→B10.BR model has been described previously (Srinivasan, M. et al. Blood 119, 1570-1580 (2012)). In brief, B10.BR recipients conditioned with 120 mg/kg/day I.P. cyclophosphamide (Cy) on days −3 and −2 and 8.3 Gy TBI (using a ^137Cesium irradiator) on day −1 were engrafted with 1×10^7 Thy1.2 depleted C57BL/6 derived bone marrow (BM) cells with (or without) 1×10^6 allogeneic splenocytes.\nTherapeutic administration of ibrutinib via drinking water was conducted as previously described (Dubovsky 2013). Mice received a dose equivalent to 15 mg/Kg/day in 0.4% methylcellulose by intraperitoneal injection starting day 28 post-transplant for the C57BL/6→B10.BR model. Cyclosporine A was administered I.P. in 0.2% CMC at 10 mg/kg/day starting at day 25 for 2-weeks followed by 3× weekly (Blazar, B. R. et al. Blood 92, 3949-3959 (1998)). […]"}, "[2]": {"assay": "Weekly body weight of cGVHD mice", "type": "in vivo, mouse", "settings": "BM, BM+S vehicle and BM+S ibrutinib groups; FIG. 3", "method": "FIG. 3 exemplifies body weight of cGVHD mice in C57BL/6→B10.BR model. Bodyweight measurements for bone marrow (BM) non-cGVHD mice, BM+splenocyte (S) engrafted cGVHD irrelevant vehicle treated mice, or Ibrutinib treated BM+S engrafted mice.\nas §2\n(§3) Therapeutic administration of ibrutinib via drinking water was conducted as previously described (Dubovsky 2013). Mice received a dose equivalent to 15 mg/Kg/day in 0.4% methylcellulose by intraperitoneal injection starting day 28 post-transplant for the C57BL/6→B10.BR model. Cyclosporine A was administered I.P. in 0.2% CMC at 10 mg/kg/day starting at day 25 for 2-weeks followed by 3× weekly (Blazar, B. R. et al. Blood 92, 3949-3959 (1998))."}, "[3]": {"system": "C57BL/6→B10.BR cGVHD model", "assay": "Overall survival of cGVHD mice (Kaplan Meier)", "type": "in vivo, mouse", "settings": "ibrutinib cohort; FIG. 2", "method": "FIG. 2 exemplifies survival of cGVHD mice in C57BL/6→B10.BR model. Kaplan Meier plot of overall survival for bone marrow (BM) non-cGVHD mice, BM+splenocyte (S) engrafted cGVHD irrelevant vehicle treated mice, or Ibrutinib treated BM+S engrafted mice.\nas §2, §3"}, "[4]": {"system": "C57BL/6→B10.BR cGVHD model", "assay": "Pulmonary immunoglobulin deposition (anti-mouse Ig FITC immunofluorescence of lung sections)", "type": "in vivo", "settings": "day 60 post-HSCT", "description": "as §1, §2, §3"}, "[5]": {"system": "C57BL/6→B10.BR cGVHD model", "assay": "Masson trichrome staining of pulmonary collagen deposition / fibrosis in cGVHD model", "type": "in vivo, mouse", "method": "as §2, §3\nMasson Trichrome staining: 6 μm cryosections were fixed for 5 minutes in acetone and stained with hematoxylin and eosin to determine pathology and with the Masson's trichrome staining kit (Sigma) for detection of collagen deposition. Histopathology scores were assigned as described (Blazar, B. R. et al. Blood 92, 3949-3959 (1998)). Collagen deposition was quantified on trichrome stained sections as a ratio of area of blue staining to area of total staining using the Adobe Photoshop CS3 analysis tool."}, "[6]": {"system": "C57BL/6→B10.BR cGVHD model", "assay": "Pulmonary function tests (PFTs) at day 60 in therapeutic allo-HSCT cGVHD/bronchiolitis obliterans model", "type": "in vivo, mouse", "method": "To determine whether ibrutinib could reverse established cGVHD, a murine model of alloantibody driven multi-organ system cGVHD including bronchiolar obliterans (BO) (MHC disparate, C57BL/6→B10.BR) was utilized.\nas §2, §3\nPulmonary function tests: Pulmonary function tests (PFTs) were performed on anesthetized mice using whole-body plehysmography with the Flexivent system (SCIREQ)."}},
  "data": [
    {"smiles": "C=CC(=O)N1CCC[C@@H](n2nc(-c3ccc(Oc4ccccc4)cc3)c3c(N)ncnc32)C1", "note": "[ibrutinib, (R)-1-(3-(4-amino-3-(4-phenoxyphenyl)-1H-pyrazolo[3,4-d]pyrimidin-1-yl)piperidin-1-yl)prop-2-en-1-one]", "values": [
      {"measurement": "GC reactions within the spleen (peanut agglutinin staining)", "setting": "[1]; compared to vehicle treated mice with active cGVHD, FIG. 4A", "result": "reduced the overall size, cellularity, and number of GC reactions"},
      {"measurement": "CD19+GL7+CD38lo germinal center B-cells within the spleen (flow cytometry)", "setting": "[1]; day 60 post-HSCT, 8 mice per group, p=0.0222, FIG. 4B", "result": "significantly inhibited the cGVHD-induced formation germinal center B-cells"},
      {"measurement": "mouse bodyweight, weekly evaluation", "setting": "[2]", "result": "little variation between groups"},
      {"measurement": "survival", "setting": "[3]", "result": 100, "unit": "%"},
      {"measurement": "pulmonary deposition of allo-Ig (immunofluorescent microscopy)", "setting": "[4]; FIG. 4C", "result": "limited pulmonary deposition of allo-Ig"},
      {"measurement": "quantified immunofluorescent signal of pulmonary Ig deposition", "setting": "[4]; p<0.001, FIG. 4D", "result": "significant and complete ablation of pulmonary Ig deposition"},
      {"measurement": "peribronchiolar collagen fibrosis, Masson Trichrome staining of inflated pulmonary tissues", "setting": "[5]; 4 mice from 3 experiments, representative images, FIG. 1D", "result": "less peribroncheolar collagen fibrosis"},
      {"measurement": "lung and liver fibrosis (summary statement)", "setting": "[5]; C57BL/6→B10.BR cGVHD model", "result": "reversed lung and liver fibrosis"},
      {"measurement": "quantified trichrome staining (pulmonary fibrosis, ratio of blue area to total area)", "setting": "[5]; p<0.0001, FIG. 1E", "result": "ameliorates pulmonary fibrosis caused by cGVHD"},
      {"measurement": "pulmonary function (summary statement)", "setting": "[6]; C57BL/6→B10.BR cGVHD model", "result": "restored pulmonary function"},
      {"measurement": "development of BO as measured by pulmonary elastance", "setting": "[6]; ibrutinib 15 mg/Kg/day from day 28 post-transplant, PFT day 60, p=0.0019, FIG. 1B", "result": "curtailed the development of BO in vivo"},
      {"measurement": "development of BO as measured by pulmonary compliance", "setting": "[6]; ibrutinib 15 mg/Kg/day from day 28 post-transplant, PFT day 60, p=0.0071, FIG. 1C", "result": "curtailed the development of BO in vivo"},
      {"measurement": "development of BO as measured by pulmonary resistance", "setting": "[6]; ibrutinib 15 mg/Kg/day from day 28 post-transplant, PFT day 60, p=0.0090, FIG. 1A", "result": "curtailed the development of BO in vivo"}
    ]}
  ]
}
